Our source for the Km values is PMC12770603 (Scientific Reports, 2025).

For the assay, the system named is EstN3. The experiment in a line: p-nitrophenol release at […] nm, Michaelis-Menten non-linear fit. It is filed as biochemical, uncultured bacterium. Particulars: pH 7.0, 37 °C, 15 min.

As for `CCCCC(=O)Oc1ccc([N+](=O)[O-])cc1` [pNP-valerate], the Km stood at 1520 µM.

In general, Km refers to the concentration of substrate that gives half-maximal velocity.
